Results on 1 substance are retold here after publication PMC3273469, “BACE1 Inhibition Induces a Specific Cerebrospinal Fluid β-Amyloid Pattern That Identifies Drug Effects in the Central Nervous System” (PLoS ONE, 2012).

The target in this experiment is BACE1 (Homo sapiens, UniProt P56817). The experiment in a line: Cellular Aβ[…] secretion ELISA (SH-SY5Y APP695wt cells); IP-MS Aβ pattern. In kind it is cell-based. In general terms: ELISA stands for enzyme-linked immunosorbent assay.
Chain of BACE1 (P56817 46-501): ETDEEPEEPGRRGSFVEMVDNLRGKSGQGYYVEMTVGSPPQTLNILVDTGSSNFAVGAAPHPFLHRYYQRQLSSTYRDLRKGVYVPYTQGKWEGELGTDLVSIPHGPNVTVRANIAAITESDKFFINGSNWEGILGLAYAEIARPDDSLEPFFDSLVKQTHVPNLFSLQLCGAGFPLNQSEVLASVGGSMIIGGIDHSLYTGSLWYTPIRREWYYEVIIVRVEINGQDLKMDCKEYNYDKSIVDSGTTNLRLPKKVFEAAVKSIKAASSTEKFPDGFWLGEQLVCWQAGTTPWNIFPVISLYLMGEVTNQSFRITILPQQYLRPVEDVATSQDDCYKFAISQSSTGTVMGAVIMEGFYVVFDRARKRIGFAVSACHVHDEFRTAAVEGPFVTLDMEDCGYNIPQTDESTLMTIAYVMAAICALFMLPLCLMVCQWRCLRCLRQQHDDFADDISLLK

Regarding AZ-20, the IC50 (usually the midpoint of a concentration-inhibition curve) was found to be 8.2 ± 1.4 nM.
